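Compound exposure: 48 hours, 5 concentrations, 96-well plates. TGI is the concentration that stops growth completely.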
Assays:
Experiment in all cases: NCI tumour cell line growth inhibition, 48 h
NCI-H522 lung = test system: NCI-H522 lung
EKVX NSCLC = test system: EKVX NSCLC
786-0 renal = test system: 786-0 renal
COLO 205 colon = test system: COLO 205 colon
DLD-1 colon = test system: DLD-1 colon
SK-OV-3 ovarian = test system: SK-OV-3 ovarian
KM20L2 colon = test system: KM20L2 colon
K-562 leukemia = test system: K-562 leukemia
OVCAR-3 ovarian = test system: OVCAR-3 ovarian
OVCAR-8 ovarian = test system: OVCAR-8 ovarian
HOP-18 NSCLC = test system: HOP-18 NSCLC
SK-MEL-5 melanoma = test system: SK-MEL-5 melanoma
DMS 114 small cell lung = test system: DMS 114 small cell lung
LXFL 529 NSCLC = test system: LXFL 529 NSCLC
NCI-H460 lung = test system: NCI-H460 lung
SK-MEL-28 melanoma = test system: SK-MEL-28 melanoma
HCT-116 colon = test system: HCT-116 colon
RXF 393 renal = test system: RXF 393 renal
NCI-H23 lung = test system: NCI-H23 lung
U251 CNS = test system: U251 CNS
NCI-H226 lung = test system: NCI-H226 lung
MOLT-4 leukemia = test system: MOLT-4 leukemia
LOX IMVI melanoma = test system: LOX IMVI melanoma
TK-10 renal = test system: TK-10 renal
HT29 colon = test system: HT29 colon
HCC-2998 colon = test system: HCC-2998 colon
SN12C renal = test system: SN12C renal
SW-620 colon = test system: SW-620 colon
A549 NSCLC = test system: A549 NSCLC
SF-268 CNS = test system: SF-268 CNS
HOP-62 NSCLC = test system: HOP-62 NSCLC
M19-MEL melanoma = test system: M19-MEL melanoma
SF-295 CNS = test system: SF-295 CNS
IGROV1 ovarian = test system: IGROV1 ovarian
OVCAR-4 ovarian = test system: OVCAR-4 ovarian
M14 melanoma = test system: M14 melanoma
SNB-75 CNS = test system: SNB-75 CNS
CCRF-CEM leukemia = test system: CCRF-CEM leukemia
HL-60(TB) leukemia = test system: HL-60(TB) leukemia
KM12 colon = test system: KM12 colon
RPMI-8226 leukemia = test system: RPMI-8226 leukemia
DMS 273 small cell lung = test system: DMS 273 small cell lung
XF 498 CNS = test system: XF 498 CNS
SNB-19 CNS = test system: SNB-19 CNS
SF-539 CNS = test system: SF-539 CNS
UACC-62 melanoma = test system: UACC-62 melanoma
SNB-78 CNS = test system: SNB-78 CNS

Measured: TGI

Cc1cc2c(cc1CO)N1Cc3cc(C)c(CO)cc3N(C2)C1
> 100 µM: NCI-H522 lung | EKVX NSCLC | 786-0 renal | COLO 205 colon | DLD-1 colon | SK-OV-3 ovarian | KM20L2 colon | K-562 leukemia | OVCAR-3 ovarian | OVCAR-8 ovarian | HOP-18 NSCLC | SK-MEL-5 melanoma | DMS 114 small cell lung | LXFL 529 NSCLC | NCI-H460 lung | SK-MEL-28 melanoma | HCT-116 colon | RXF 393 renal | NCI-H23 lung | U251 CNS | NCI-H226 lung | MOLT-4 leukemia | LOX IMVI melanoma | TK-10 renal | HT29 colon | HCC-2998 colon | SN12C renal | SW-620 colon | A549 NSCLC | SF-268 CNS | HOP-62 NSCLC | M19-MEL melanoma | SF-295 CNS | IGROV1 ovarian | OVCAR-4 ovarian | M14 melanoma | SNB-75 CNS | CCRF-CEM leukemia | HL-60(TB) leukemia | KM12 colon | RPMI-8226 leukemia | DMS 273 small cell lung | XF 498 CNS | SNB-19 CNS | SF-539 CNS | UACC-62 melanoma | SNB-78 CNS

Reference: PubChem BioAssay (NCI)
